PubChem BioAssay AID1919017 (Molecular Pharmacology Branch, DTP, NCI, 2023)

Tested on: SW1271 complex spheroids with HUVEC/MSC, growth, % test/control
Experiment: Anticancer human tumor SW1271 cell line growth inhibition [AhR];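 further: spheroids exposed to agents for 7 days before readout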
Conditions: for IC50: curve of first compound; for viability, T/C: stronger effect = lower value
Text: Multicellular complex tumor spheroid response to aryl hydrocarbon receptor antagonists in combination with a variety of drugs and investigational agents in selected tumor cell lines
The current study was undertaken to assess response to aryl hydrocarbon receptor antagonists in combination with standard-of-care drugs and investigational agents in solid tumor complex spheroid models. Complex spheroids include a stromal component modeled by human endothelial cells (HUVEC) and fibroblasts modeled by human mesenchymal stem cells (MSCs). The concentration ranges selected for each drug and investigational agent were based upon clinically achievable concentrations if the clinical Cmax of the agent was known.
Compounds. The drugs and investigational agents: BAY 2416964 (NSC825713), GNF351 (NSC835774), CH-223191 (NSC835775), CPI-455 (NSC825282), aza-TdCyd (NSC777586), decitabine (NSC127716), belinostat (NSC758774), entinostat (NSC756642), pevonedistat (NSC761192), tazemetostat (NSC777109), talazoparib (NSC765396), olaparib (NSC753686), selinexor (NSC780203), nedisertib (M3814, NSC802822), bortezomib (NSC756655), venetoclax (NSC766270), doxorubicin (NSC123127), elimusertib (BAY189344, NSC800525), ceralasertib (AZD6738, NSC777638), TAK-243 (NSC785004), alisertib (NSC759677), etoposide (NSC141540), topotecan (NSC609699), eribulin (NSC707389), gemcitabine (NSC613327), carboplatin (NSC241240), cisplatin (NSC119875), and SN-38 (NSC673596) were obtained from the National Cancer Institute (NCI) Developmental Therapeutics Program Chemical Repository (32). The FDA-approved anticancer drug set is available from the Developmental Therapeutics Program at https://dtp.cancer.gov/organization/dscb/obtaining/available plates.htm. […] The stock solutions were prepared in dimethyl sulfoxide (DMSO, Sigma-Aldrich, St. Louis, MO, cat. D2650), except for the platinum compounds which were prepared in saline (Quality Biological, Gaithersburg, MD, cat. 114-055-101), at 800-fold the tested concentration and stored at -70 degrees C prior to their use. All drugs and investigational agents were tested over a range starting from a high concentration at or near the clinical Cmax and decreasing in half-log increments. If the clinical Cmax for an agent had not been determined, the highest concentration tested was 10 microM (Table 1).
Cell Culture. All cells were maintained in an incubator at 37 degrees C and 5% CO2 with 95% humidity. The PDC lines were cultured according to standard operating procedures established by the NCI PDMR (https://pdmr.cancer.gov). Briefly, all PDCs were thawed and cultured in Matrigel-coated flasks prepared with a working solution of 1X Ham's F-12 nutrient mix, without supplementation (Invitrogen, Waltham, MA, cat. 11765054), 100 U/mL penicillin-streptomycin (Invitrogen, cat. 15140122), and 2.5% Matrigel (Corning Inc., Corning, NY, cat. 354248) for the first three passages. All PDCs were cultured in complete DMEM/F-12 media containing advanced DMEM/F-12 (Invitrogen, cat. 12634028), 4.9% defined fetal bovine serum, heat inactivated (HyClone Laboratories Inc., Logan, UT, cat. SH30070.03HI), 389 ng/mL hydrocortisone (Sigma-Aldrich, cat. H4001), 9.7 ng/mL human EGF recombinant protein (Invitrogen, cat. PHG0313), 23.4 microg/mL adenine (Sigma-Aldrich, cat. A2786), 97.3 U/mL penicillin-streptomycin (Invitrogen, cat. 15140122), 1.9 mM L-glutamine (Invitrogen, cat. 25030081), and 9.7 microM Y-27632 dihydrochloride (Tocris Bioscience, Bristol, United Kingdom, cat. 1254). The PDCs were cultured in complete DMEM/F12 media without 10 microM Y-27632 dihydrochloride for at least two passages prior to the screen. The established cell lines NCI-H1341 and […] were cultured in DMEM/F-12, HEPES (Invitrogen, cat. 11330032), 5% defined fetal bovine serum (HyClone Laboratories Inc., cat. SH30070.03), ITS premix universal culture supplement [insulin (5 microg/mL), transferrin (5 microg/mL), and selenious acid (5 ng/mL)] […]

[1] = second compound 0.1 µM, first compound 0.00316 µM
[2] = second compound 0.1 µM, first compound 0.01 µM
[3] = second compound 0.1 µM, first compound 0.0316 µM
[4] = second compound 0.1 µM, first compound 0.1 µM
[5] = second compound 0.316 µM, first compound 0.00316 µM
[6] = second compound 0.316 µM, first compound 0.01 µM
[7] = second compound 0.316 µM, first compound 0.0316 µM
[8] = second compound 0.316 µM, first compound 0.1 µM
[9] = second compound 1 µM, first compound 0.00316 µM
[10] = second compound 1 µM, first compound 0.01 µM
[11] = second compound 1 µM, first compound 0.0316 µM
[12] = second compound 1 µM, first compound 0.1 µM
[13] = second compound 3.16 µM, first compound 0.00316 µM
[14] = second compound 3.16 µM, first compound 0.01 µM
[15] = second compound 3.16 µM, first compound 0.0316 µM
[16] = second compound 3.16 µM, first compound 0.1 µM
[17] = second compound 10 µM, first compound 0.00316 µM
[18] = second compound 10 µM, first compound 0.01 µM
[19] = second compound 10 µM, first compound 0.0316 µM
[20] = second compound 10 µM, first compound 0.1 µM
[21] = second compound 0.1 µM, first compound 0.316 µM
[22] = second compound 0.1 µM, first compound 1 µM
[23] = second compound 0.1 µM, first compound 3.16 µM
[24] = second compound 0.1 µM, first compound 10 µM
[25] = second compound 0.316 µM, first compound 0.316 µM
[26] = second compound 0.316 µM, first compound 1 µM
[27] = second compound 0.316 µM, first compound 3.16 µM
[28] = second compound 0.316 µM, first compound 10 µM
[29] = second compound 1 µM, first compound 0.316 µM
[30] = second compound 1 µM, first compound 1 µM
[31] = second compound 1 µM, first compound 3.16 µM
[32] = second compound 1 µM, first compound 10 µM
[33] = second compound 3.16 µM, first compound 0.316 µM
[34] = second compound 3.16 µM, first compound 1 µM
[35] = second compound 3.16 µM, first compound 3.16 µM
[36] = second compound 3.16 µM, first compound 10 µM
[37] = second compound 10 µM, first compound 0.316 µM
[38] = second compound 10 µM, first compound 1 µM
[39] = second compound 10 µM, first compound 3.16 µM
[40] = second compound 10 µM, first compound 10 µM

## CC[C@@]1(O)C(=O)OCc2c1cc1n(c2=O)Cc2cc3c(CN(C)C)c(O)ccc3nc2-1 + CC(CO)NC(=O)c1cc(-c2ccc(Cl)cc2)nn(-c2cnn(C)c2)c1=O
Second compound 0.1 µM
  IC50: > 100 nM
Second compound 0.316 µM
  IC50: > 100 nM
Second compound 1 µM
  IC50: > 100 nM
Second compound 3.16 µM
  IC50: > 100 nM
Second compound 10 µM
  IC50: > 100 nM
Second compound 0.1 µM, first compound 0.000316 µM
  viability, T/C: 93.6%
Second compound 0.1 µM, first compound 0.001 µM
  viability, T/C: 91.3%
[1]
  viability, T/C: 75.2%
[2]
  viability, T/C: 81.6%
[3]
  viability, T/C: 65.8%
[4]
  viability, T/C: 58%
Second compound 0.316 µM, first compound 0.000316 µM
  viability, T/C: 92.9%
Second compound 0.316 µM, first compound 0.001 µM
  viability, T/C: 70.6%
[5]
  viability, T/C: 91.1%
[6]
  viability, T/C: 87.4%
[7]
  viability, T/C: 68.2%
[8]
  viability, T/C: 50.2%
Second compound 1 µM, first compound 0.000316 µM
  viability, T/C: 81%
Second compound 1 µM, first compound 0.001 µM
  viability, T/C: 73.6%
[9]
  viability, T/C: 84.4%
[10]
  viability, T/C: 87%
[11]
  viability, T/C: 57.2%
[12]
  viability, T/C: 62.8%
Second compound 3.16 µM, first compound 0.000316 µM
  viability, T/C: 77.9%
Second compound 3.16 µM, first compound 0.001 µM
  viability, T/C: 85.2%
[13]
  viability, T/C: 69.8%
[14]
  viability, T/C: 61.6%
[15]
  viability, T/C: 61.8%
[16]
  viability, T/C: 53.5%
Second compound 10 µM, first compound 0.000316 µM
  viability, T/C: 75.8%
Second compound 10 µM, first compound 0.001 µM
  viability, T/C: 73.8%
[17]
  viability, T/C: 63.5%
[18]
  viability, T/C: 69.3%
[19]
  viability, T/C: 60.2%
[20]
  viability, T/C: 51.9%

## COc1cc(C2c3cc4c(cc3C(OC3OC5COC(C)OC5C(O)C3O)C3COC(=O)C23)OCO4)cc(OC)c1O (stereo not given) + CC(CO)NC(=O)c1cc(-c2ccc(Cl)cc2)nn(-c2cnn(C)c2)c1=O
Second compound 0.1 µM
  IC50: 9250 nM
Second compound 0.316 µM
  IC50: 5010 nM
Second compound 1 µM
  IC50: 8480 nM
Second compound 3.16 µM
  IC50: 3030 nM
Second compound 10 µM
  IC50: 2910 nM
[3]
  viability, T/C: 78.3%
[4]
  viability, T/C: 74.3%
[21]
  viability, T/C: 66.5%
[22]
  viability, T/C: 72.7%
[23]
  viability, T/C: 57.1%
[24]
  viability, T/C: 49.5%
[7]
  viability, T/C: 93.5%
[8]
  viability, T/C: 77.6%
[25]
  viability, T/C: 60.4%
[26]
  viability, T/C: 57.9%
[27]
  viability, T/C: 56%
[28]
  viability, T/C: 44.5%
[11]
  viability, T/C: 64.7%
[12]
  viability, T/C: 78.5%
[29]
  viability, T/C: 59.4%
[30]
  viability, T/C: 60.1%
[31]
  viability, T/C: 61.6%
[32]
  viability, T/C: 47.7%
[15]
  viability, T/C: 70.9%
[16]
  viability, T/C: 68%
[33]
  viability, T/C: 59.6%
[34]
  viability, T/C: 45.2%
[35]
  viability, T/C: 59.2%
[36]
  viability, T/C: 43.6%
[19]
  viability, T/C: 71.1%
[20]
  viability, T/C: 65%
[37]
  viability, T/C: 50.7%
[38]
  viability, T/C: 63.7%
[39]
  viability, T/C: 43.4%
[40]
  viability, T/C: 48.3%

## COc1cccc2c1C(=O)c1c(O)c3c(c(O)c1C2=O)CC(O)(C(=O)CO)CC3OC1CC(N)C(O)C(C)O1 (stereo not given) + CC(CO)NC(=O)c1cc(-c2ccc(Cl)cc2)nn(-c2cnn(C)c2)c1=O
Second compound 0.1 µM
  IC50: 348 nM
Second compound 0.316 µM
  IC50: 136 nM
Second compound 1 µM
  IC50: 151 nM
Second compound 3.16 µM
  IC50: 337 nM
Second compound 10 µM
  IC50: 165 nM
[3]
  viability, T/C: 62.5%
[4]
  viability, T/C: 67.7%
[21]
  viability, T/C: 54%
[22]
  viability, T/C: 5.59%
[23]
  viability, T/C: 1.72%
[24]
  viability, T/C: 3.58%
[7]
  viability, T/C: 49.2%
[8]
  viability, T/C: 61.1%
[25]
  viability, T/C: 35.6%
[26]
  viability, T/C: 4%
[27]
  viability, T/C: 1.69%
[28]
  viability, T/C: 2.61%
[11]
  viability, T/C: 72%
[12]
  viability, T/C: 52.9%
[29]
  viability, T/C: 39.2%
[30]
  viability, T/C: 3.81%
[31]
  viability, T/C: 1.11%
[32]
  viability, T/C: 2.5%
[15]
  viability, T/C: 68.6%
[16]
  viability, T/C: 54%
[33]
  viability, T/C: 52.8%
[34]
  viability, T/C: 1.66%
[35]
  viability, T/C: 2.16%
[36]
  viability, T/C: 2.9%
[19]
  viability, T/C: 58.7%
[20]
  viability, T/C: 61.3%
[37]
  viability, T/C: 37%
[38]
  viability, T/C: 0.78%
[39]
  viability, T/C: 1.79%
[40]
  viability, T/C: 3.41%

## Nc1ncn(C2CC(O)C(CO)O2)c(=O)n1 (stereo not given) + CC(CO)NC(=O)c1cc(-c2ccc(Cl)cc2)nn(-c2cnn(C)c2)c1=O
Second compound 0.1 µM
  IC50: > 1000 nM
Second compound 0.316 µM
  IC50: > 1000 nM
Second compound 1 µM
  IC50: > 1000 nM
Second compound 3.16 µM
  IC50: > 1000 nM
Second compound 10 µM
  IC50: > 1000 nM
[1]
  viability, T/C: 73.8%
[2]
  viability, T/C: 85.4%
[3]
  viability, T/C: 80%
[4]
  viability, T/C: 75.9%
[21]
  viability, T/C: 93%
[22]
  viability, T/C: 66.8%
[5]
  viability, T/C: 78.2%
[6]
  viability, T/C: 88%
[7]
  viability, T/C: 77.5%
[8]
  viability, T/C: 79.7%
[25]
  viability, T/C: 62.1%
[26]
  viability, T/C: 105%
[9]
  viability, T/C: 76%
[10]
  viability, T/C: 79.7%
[11]
  viability, T/C: 81.6%
[12]
  viability, T/C: 75.1%
[29]
  viability, T/C: 75.8%
[30]
  viability, T/C: 76.1%
[13]
  viability, T/C: 60%
[14]
  viability, T/C: 81%
[15]
  viability, T/C: 79.3%
[16]
  viability, T/C: 67.1%
[33]
  viability, T/C: 68.8%
[34]
  viability, T/C: 78%
[17]
  viability, T/C: 65.9%
[18]
  viability, T/C: 66.5%
[19]
  viability, T/C: 67.5%
[20]
  viability, T/C: 67.2%
[37]
  viability, T/C: 59.1%
[38]
  viability, T/C: 54.6%
